{"source": "patent US20230130766A1", "about": "(SALK INSTITUTE FOR BIOLOGICAL STUDIES, priority 2020, published 2023)", "key": {"MDA-MB-468 cells": {"tested_on": "MDA-MB-468 cells", "experiment": "CellTiter-Glo cell viability dose-response matrix, synergy by Combenefit (Loewe model)", "type": "cell-based", "details": "72 h; for concentrations at which significant synergy was observed: combination of Compound 349 and olaparib", "description": "Different concentrations of Compound 349 with olaparib (FIG. 13A) were tested to measure the combined effect of inhibiting both ULK1/2 and PARP. For these experiments, MDA-MB-468 cells were treated with Compound 349 (0-15 μM) and olaparib (0-15 μM) in a dose-response matrix for 72 h, and cell viability was assessed by a CellTiter-Glo assay, and the synergistic effect was analyzed with Combenefit using the Loewe model."}, "ULK1": {"molecular_target": "T1, ULK1 (Homo sapiens, UniProt O75385)", "T1 sequence (O75385 1-1050)": "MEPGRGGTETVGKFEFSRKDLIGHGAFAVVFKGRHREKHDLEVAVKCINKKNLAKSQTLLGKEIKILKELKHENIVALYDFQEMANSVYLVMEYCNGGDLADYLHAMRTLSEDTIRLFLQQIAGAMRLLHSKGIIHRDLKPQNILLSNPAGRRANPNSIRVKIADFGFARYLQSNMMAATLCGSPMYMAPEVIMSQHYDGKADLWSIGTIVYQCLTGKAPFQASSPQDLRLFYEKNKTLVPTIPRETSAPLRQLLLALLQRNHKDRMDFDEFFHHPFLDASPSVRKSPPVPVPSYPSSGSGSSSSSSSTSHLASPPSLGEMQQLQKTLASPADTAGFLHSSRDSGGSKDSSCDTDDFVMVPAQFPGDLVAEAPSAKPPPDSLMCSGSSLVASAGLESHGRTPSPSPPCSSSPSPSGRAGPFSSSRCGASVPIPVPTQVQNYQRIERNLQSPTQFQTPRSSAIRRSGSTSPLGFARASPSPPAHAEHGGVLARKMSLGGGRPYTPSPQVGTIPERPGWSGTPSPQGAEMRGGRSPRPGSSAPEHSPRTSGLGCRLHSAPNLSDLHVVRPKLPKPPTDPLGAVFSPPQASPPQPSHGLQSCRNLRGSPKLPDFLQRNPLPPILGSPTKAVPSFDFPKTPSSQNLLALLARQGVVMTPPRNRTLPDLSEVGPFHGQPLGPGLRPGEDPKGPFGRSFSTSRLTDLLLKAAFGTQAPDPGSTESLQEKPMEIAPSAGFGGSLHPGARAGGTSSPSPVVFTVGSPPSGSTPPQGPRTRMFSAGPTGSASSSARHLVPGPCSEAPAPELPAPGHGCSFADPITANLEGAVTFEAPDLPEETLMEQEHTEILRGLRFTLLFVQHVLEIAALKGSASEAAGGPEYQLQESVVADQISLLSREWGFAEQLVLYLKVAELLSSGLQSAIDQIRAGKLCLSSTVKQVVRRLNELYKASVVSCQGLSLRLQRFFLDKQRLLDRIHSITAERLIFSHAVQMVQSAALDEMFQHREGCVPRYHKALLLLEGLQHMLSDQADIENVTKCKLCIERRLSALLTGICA", "experiment": "ULK1 inhibition assay", "type": "biochemical", "details": "* = tested as a mixture of regioisomers"}, "[1]": {"tested_on": "MDA-MB-468 cells expressing mCherry-EGFP-LC3", "experiment": "Autophagic flux by flow cytometry", "type": "cell-based", "details": "48 h", "description": "To investigate the mechanism by which Compound 349 potentiates the cytotoxic effects of PARP inhibitors, MDA-MB-468 cells expressing mCherry-EGFP-LC3 were treated with olaparib (30 μM) and/or Compound 349 (10 μM) for 48 h and then quantified for autophagic flux. For these experiments, MDA-MB-468 cells stably expressing the mCherry-GFP-LC3 fusion protein were plated in 6-well plates at a density of 6×10^5 cells/well in growth media DMEM/F12+GlutaMAX-1 (Gibco) supplemented with 10% FBS (Gibco) and 1× Anti-Anti (Gibco) and allowed to grow overnight. Cells were treated, trypsinized, and then resuspended in PBS, and analytical cytometry was performed using an LSRFortessa 14-color (BD Biosciences) with a 488 nm and […] laser. For flow cytometry, wild type MDA-MB-468 cells were used as the unstained control, and MDA-MB-468 cells expressing either mCherry or GFP were used for comparison. Events of 10,000 were collected for each sample."}, "A549 cells [2]": {"tested_on": "A549 cells", "experiment": "A549 xenografts, ULK inhibitor alone and in combination with carboplatin", "type": "in vivo, nude mice", "description": "A549 cells (5M cells) were injected bilaterally into the flanks of thirty-six nude mice to create tumor xenografts in order to assess the efficacy of Compound 14 in treating non-small cell lung cancer tumors both alone and in combination with carboplatin, the current standard of care therapy for non-small cell lung cancer. After 11 days of letting tumor cells proliferate (at which point tumors were ˜50 mm^3 in volume), administration of carboplatin, Compound 14, or combinations began. One cohort of six mice received 20 mg/kg twice daily doses of Compound 14 alone, one cohort of six mice received 30 mg/kg twice daily doses of Compound 14 alone, one cohort of six mice received 25 mg/kg doses of carboplatin every three days, one cohort of six mice received 20 mg/kg twice daily doses of Compound 14 in conjunction with 25 mg/kg doses of carboplatin every three days, one cohort of six mice received 30 mg/kg twice daily doses of Compound 14 in conjunction with 25 mg/kg doses of carboplatin every three days, and the remaining six mice were treated with vehicle. Treatment and monitoring was continued until day 53 post inoculation of tumor cells (42 days of treatment)."}, "A549 cells [3]": {"tested_on": "A549 cells", "experiment": "A549 xenograft large tumors, ULK inhibitor alone versus carboplatin", "type": "in vivo, nude mice", "details": "A549 large tumors (over 200 mm^3 at start); carboplatin 25 mg/kg every three days; day 72", "description": "A549 cells (5M cells) were injected bilaterally into the flanks of forty-six nude mice to create tumor xenografts in order to assess the efficacy of Compound 14 in treating larger non-small cell lung cancer tumors compared to carboplatin, the current standard of care therapy for non-small cell lung cancer. After 40 days of letting tumor cells proliferate (at which point tumors were over 200 mm^3 in volume), administration of carboplatin or Compound 14 was initiated. One cohort of twelve mice received 20 mg/kg twice daily doses of Compound 14, one cohort of ten mice received 30 mg/kg twice daily doses of Compound 14, one cohort of seven mice received 25 mg/kg doses of carboplatin every three days, one cohort of seven mice received 40 mg/kg once daily doses of Compound 14, and the remaining ten mice were treated with vehicle. Treatment and monitoring was continued until day 72 post inoculation of tumor cells (32 days of treatment)."}, "MIA PaCa-2 cells": {"tested_on": "MIA PaCa-2 cells", "experiment": "MIA PaCa-2 xenografts, ULK inhibitor alone versus gemcitabine", "type": "in vivo, nude mice", "details": "day 42, Compound 14 20 mg/kg twice daily, gemcitabine dose not given", "description": "MIA PaCa-2 cells were injected bilaterally into the flanks of nude mice to create tumor xenografts in order to assess the efficacy of Compound 14 in treating pancreatic cancer tumors compared to gemcitabine, a current standard of care therapy for pancreatic cancer. After 3 days of letting tumor cells proliferate (at which point tumors were ˜100 mm^3 in volume), administration of gemcitabine or Compound 14 was initiated. One cohort received 20 mg/kg twice daily doses of Compound 14, one cohort received gemcitabine, and the remaining cohort was treated with vehicle. Treatment and monitoring were continued until day 42 post inoculation of tumor cells (30 days of treatment)."}}, "data": [{"smiles": "COc1ccc(Nc2ncc(C(F)(F)F)c(NC3CC3)n2)cc1OC", "note": "[Compound 349]", "values": [{"measurement": "antiproliferative synergy", "setting": "MDA-MB-468 cells; Compound 349 (0-15 μM) with olaparib (0-15 μM)", "result": "strong antiproliferative synergy"}, {"measurement": "maximum synergy score", "setting": "MDA-MB-468 cells; Compound 349 (0-15 μM) with olaparib (0-15 μM), Loewe model", "result": 34}, {"measurement": "concentrations at which significant synergy was observed", "setting": "MDA-MB-468 cells", "result": "0.021 to 15", "unit": "µM"}, {"measurement": "IC50", "setting": "ULK1", "result": "< 0.2", "unit": "µM"}, {"measurement": "olaparib-induced increase in autophagic flux", "setting": "[1]; Compound 349 10 μM concomitant with olaparib 30 μM", "result": "significantly suppressed the olaparib-induced increase in autophagic flux to a level similar to that observed in untreated control cells"}]}, {"smiles": "COc1cc(Nc2ncc(Br)c(Oc3ccccc3[S+](C)[O-])n2)cc(OC)c1OC", "note": "(centres unmarked) [Compound 356]", "values": [{"measurement": "IC50", "setting": "ULK1", "result": "> 2", "unit": "µM"}]}, {"smiles": "O=C1CCc2cc(Nc3ncc(C(F)(F)F)c(OCCN4CCOC4=O)n3)ccc2N1", "note": "[Compound 357]", "values": [{"measurement": "IC50", "setting": "ULK1", "result": "0.2 to 2", "unit": "µM"}]}, {"smiles": "Nc1nc(N(C(=O)C2CC2)c2ccc3c(c2)CCC(=O)N3)ncc1C(F)(F)F", "note": "[Compound 358]", "values": [{"measurement": "IC50", "setting": "ULK1", "result": "> 2", "unit": "µM"}]}, {"smiles": "N.N.O=C([O-])C1(C(=O)[O-])CCC1.[Pt+2]", "note": "[carboplatin, reference compound]", "values": [{"measurement": "final tumor average volume", "setting": "A549 cells [2]; carboplatin 25 mg/kg every three days alone, day 53", "result": "~200", "unit": "mm^3"}, {"measurement": "tumor growth compared to the control", "setting": "A549 cells [2]; monotherapy: carboplatin 25 mg/kg every three days, Compound 14 20 mg/kg twice daily", "result": "markedly reduced growth compared to the control"}, {"measurement": "tumor volume by the end of the study", "setting": "A549 cells [3]", "result": "above 500 mm^3"}]}, {"smiles": "Nc1ccn([C@@H]2O[C@H](CO)[C@@H](O)C2(F)F)c(=O)n1", "note": "[gemcitabine, reference compound]", "values": [{"measurement": "final tumor volume", "setting": "MIA PaCa-2 cells", "result": "~800", "unit": "mm^3"}]}, {"smiles": "O=C(c1cc(Cc2n[nH]c(=O)c3ccccc23)ccc1F)N1CCN(C(=O)C2CC2)CC1", "note": "[olaparib, reference compound]", "values": [{"measurement": "concentrations at which significant synergy was observed", "setting": "MDA-MB-468 cells", "result": "3.8 to 15", "unit": "µM"}, {"measurement": "increase in autophagic flux compared with control cells", "setting": "[1]; olaparib 30 μM alone", "result": "approximately 30%"}]}]}
